Two molecules from EP3900733A1, “SRC KINASE ACTIVATORS AND ENG FUNCTION INHIBITORS AS ENHANCERS OF SKIN HOMEOSTASIS/REGENERATION AND HAIR GROWTH” (Derma Innovate S.L., priority 2020, dated 2021) can be followed below.

What all share (type): cell-based
For experiment [1], the system named is ex vivo grown human hair follicles. As to the kind of experiment: Activation of ex vivo cultured hair follicles (hair bulb area image analysis, histology, Ki67). The following applies: for proliferation and differentiation of the hair bulb area (hair follicle activation): combination of PT (mALA and red light), 24 hours after treatments. The method, then: Human hair follicles were obtained from human scalp samples taken from the occipital skin of volunteer donors during a hair transplant procedure. Eligible patients provided written informed consent, and the Ethical committee of the Ramon y Cajal Hospital approved this procedure.
Follicular units (FUs) were dissected using scalpels under a magnifier, and the ones in resting phase (telogen) were selected. Those FUs were transferred to the laboratory and maintained at 4 °C until processed in Williams' medium E (Sigma) supplemented with 10x Penicilin/Streptomycin, 10x Aphotericin B, and 2 mM L-Glutamin (all from Gibco), 5 µg/ml Insulin, 5 µg/ml transferring, 20 pM T3 hormone, 0.083 µg/ml cholera toxin and 0.4 µg/ml hydrocortisone. FUs can be stored in complete Williams' medium at 4 °C for approximately 5 days without significant loss of the mini organ function. FU cultures were maintained at 37°C in a 5% CO2 humidified atmosphere.
Endogenous protoporphyrin IX (PpIX)-dependent photodynamic treatments (PT) were routinely performed on exponentially growing cells at 60% of confluence, as well as in ex vivo cultured hair follicles (HF) (Carrasco E et al. Methods 15:109, 2016; Calvo-Sanchez MI et al. Sci. Rep.9:4509, 2019). To that end, cells and HFs were incubated for 2-4 hours, normally 2 hours, with 0.1 mM of a PpIX metabolic precursor (typically, aminolevulinic acid ALA, or the ALA methylated derivative methyl aminolevulinate mALA) in the corresponding medium in the absence of serum or growth factors. Immediately, approximately 1 minute, after the incubation step the samples were further irradiated 2-15 min, normally between 8 and 10 minutes, with a red-light emitting diode source with an emission peak at 634 nm bandwidth, with a total light dose of 2-10 J/cm^2, normally 4 J/cm^2 (Carrasco E et al. Methods 15:109, 2016; Calvo-Sanchez MI et al. Sci. Rep.9:4509, 2019). […] Additionally, total controls in strict dark conditions (no PpIX precursor, no light) were evaluated for each biological model, although this control was not routinely used in experimental series since ambient light is an unavoidable contaminant, and the light control is the most adequate in this experimental design.
For the quantification of the number of cells in cell cultures after different treatments, a Bio-Rad TC20™ automated cell counter was used following the instructions of the manufacturer. […] Image acquisition was performed using a Nikon Eclipse Ci LED-fluorescence microscope using a 2x objective and a 0.55x Reduction Lens adapter coupled to a Jenoptik PROGRES GRYPHAX® SUBRA Super HD camera and suited Version 1.1.8.153 image software pack. […] Total hair bulb area in high resolution images of whole hair follicles was spotted and quantified using suited free FIJI software packs (https://fiji.sc/). […]

In experiment [2] the test system is cSrc kinase. Put plainly: cSrc Tyr419 phosphorylation by immunoblot in treated cell cultures. The conditions noted are these: mouse E14 embryonic stem cells; peptide 100 nM; Figure 1A. The method, then:
(§1) E14 cell line is a derivative of mice embryonic stem cells (ES) obtained from the Inner Cell Mass of 129/Ola mouse strain blastocyst. E14 cells were grown on 0,1% gelatin-coated flasks in GMEM supplemented with 10% FCS tested for stem cells, 0.1 mM mixture of Non Essential Amino acids (NEAA, composed by Glycine, L-Alanine, L-Asparagine, L-Aspartic Acid, L-Glutamic acid, L-Proline and L-Serine), 2 mM L-Glutamine, 1 mM sodium pyruvate, 0.05 mM β-mercaptoethanol, Penicilin/Streptomicin (100 U/ml / 100 µg/ml) and 2.5 µg/ml amphotericin B (all from Gibco) and 1,000 U/ml LIF (Millipore), and splitted 1:8 to 1:10 every 2-3 days using Trypsin-EDTA (Invitrogen) (Smith, 1991; Cambray et al, 2012). Cells were maintained at 37°C in a 5% CO2 humidified atmosphere. The medium was changed on alternative days.
(§2) Here the functional activation of the cSrc kinase has been specifically associated with the phosphorilation of the Tyr419 residue (or equivalent) of the cSrc protein (Espada J and Martin-Perez J. Int Rev Cell Mol Biol 331:82, 2017). […] The biological activity of each YEEI phosphopeptide batch was evaluated by immunoblot detection of cSrc-Tyr419 levels in protein extracts obtained from treated cell cultures (see Figure 1) […]
(In general: In western blotting, separated proteins are transferred to a membrane and probed.)

The test system of experiment [3] is mouse E14 embryonic stem cells. Put plainly: Cell proliferation (automated cell counting), with or without phototreatment. The following applies: for enhancement of PT-induced cell proliferation: PT (mALA and red light) combined with YEEI phosphopeptide and/or S-Eng, 48 hours after irradiation. How it is done: as §1
Endogenous protoporphyrin IX (PpIX)-dependent photodynamic treatments (PT) were routinely performed on exponentially growing cells at 60% of confluence, as well as in ex vivo cultured hair follicles (HF) (Carrasco E et al. Methods 15:109, 2016; Calvo-Sanchez MI et al. Sci. Rep.9:4509, 2019). […] Additionally, total controls in strict dark conditions (no PpIX precursor, no light) were evaluated for each biological model, although this control was not routinely used in experimental series since ambient light is an unavoidable contaminant, and the light control is the most adequate in this experimental design.
as §2

For experiment [4], the system named is human primary skin fibroblasts. Described as above. The conditions noted are these: for enhancement of PT-induced cell proliferation: human primary fibroblasts, 48 hours after irradiation. How it is done: Primary cultures of human fibroblasts were obtained from normal human skin. Collection of skin biopsy punches, 4mm diameter, from volunteer donors was routinely performed in the Dermatology Service of the Ramon y Cajal University Hospital, Madrid, Spain, following the regulations of the hospital ethics committee for human research, eligible patients providing written informed consent.
Skin samples were transferred to the laboratory and maintained at 4 °C in DMEM medium (Gibco) with 10x Penicilin/Streptomycin and 10x Aphotericin B until processed, not exceeding 24h. Then, the subcutaneous layer was removed using scalpels, and skin biopsies were cut in small pieces of 1-4 mm^2. In order to obtain primary fibroblasts, skin pieces were incubated in 1mg/ml of collagenase A enzyme (Roche) solution for 4 hours at 37 °C, in mild agitation in order to help cell dissociation.
The supernatant containing the fibroblasts was vigorously pipetted and diluted in DMEM medium supplemented with 10% FCS, 2 mM L-Glutamine, Penicilin/Streptomicin (100 U/ml / 100 µg/ml) and 2.5 µg/ml amphotericin B and centrifuged for five minutes at 1500 RPM. The pellet was resuspended in complete DMEM medium and the fibroblasts were seeded in a maximum density of 1 million cells per ml using a 24 well plate and routinely grown at 37°C in a humidified atmosphere containing CO2 5%. 24 hours later, medium was removed to eliminate all detached cells. The cells were passaged when they reached 70-80% confluency, in order to prevent differentiation. The primary culture reached appropriate confluence after 8 to 10 days, and the derivative subcultures were splitted 1:4 once a week. After 10 to 20 passages, cells undergo senescence.
Endogenous protoporphyrin IX (PpIX)-dependent photodynamic treatments (PT) were routinely performed on exponentially growing cells at 60% of confluence, as well as in ex vivo cultured hair follicles (HF) (Carrasco E et al. Methods 15:109, 2016; Calvo-Sanchez MI et al. Sci. Rep.9:4509, 2019). To that end, cells and HFs were incubated for 2-4 hours, normally 2 hours, with 0.1 mM of a PpIX metabolic precursor (typically, aminolevulinic acid ALA, or the ALA methylated derivative methyl aminolevulinate mALA) in the corresponding medium in the absence of serum or growth factors. Immediately, approximately 1 minute, after the incubation step the samples were further irradiated 2-15 min, normally between 8 and 10 minutes, with a red-light emitting diode source with an emission peak at 634 nm bandwidth, with a total light dose of 2-10 J/cm^2, normally 4 J/cm^2 (Carrasco E et al. Methods 15:109, 2016; Calvo-Sanchez MI et al. Sci. Rep.9:4509, 2019). Immediately after irradiation, approx. 1 minute after, samples were washed in PBS, fresh medium was added, and were further routinely grown at 37°C in a humidified atmosphere containing CO2 5%. When required, activators of cSrc kinase or inhibitors of Eng function (see below) were added, alone or in combination, in the fresh medium used immediately after irradiation, and samples were subsequently incubated for the indicated times. […] Additionally, total controls in strict dark conditions (no PpIX precursor, no light) were evaluated for each biological model, although this control was not routinely used in experimental series since ambient light is an unavoidable contaminant, and the light control is the most adequate in this experimental design. […]

Square brackets hold non-standard residues; d marks the D form. Ends that are not written are not given here. pY = N[C@@H](Cc1ccc(OP(=O)(O)O)cc1)C(=O)O

On to `COC(=O)CCC(=O)CN` [mALA, methyl aminolevulinate], for which the “time after PT at which HF activation is evident” value in experiment [1] (PT using mALA and red light, compared to control, Figure 6) was 5 days. Further, the “time after treatment at which activation occurs” value in experiment [1] (photodynamic treatment with mALA and red light, Figures 6 and 7) is recorded as “approximately 5 days”.

For the molecule “Glu-Pro-Gln-Tyr(PO3H2)-Glu-Glu-Ile-Pro-Ile-Tyr-Leu (EPQ[pY]EEIPIYL) [YEEI phosphopeptide]”, in experiment [2], the “Tyr419 cSRC phosphorilation” value is “induced”. In addition, the “proliferation and differentiation of the hair bulb area (hair follicle activation)” value is reported as “significantly promotes” in experiment [1] (YEEI phosphopeptide and Apt1 or Apt2, Figure 9); “significantly promotes” in experiment [1] (YEEI phosphopeptide and siRNA of SEQ ID NO 2, Figure 8). For the same molecule, the “induction of cell proliferation” value in experiment [3] (48 hours after treatments, peptide alone, Figure 1B) is given as “statistically significant induction”; in experiment [4] (human primary skin fibroblasts, 48 hours after treatments, peptide alone, Figure 1B), “statistically significant induction”. The “enhancement of PT-induced cell proliferation” value was “significantly enhanced” in experiment [3] (Figure 3); “markedly enhanced” in experiment [3] (Figure 3, listed as YEEI peptide); “significantly enhanced” in experiment [4] (PT (mALA and red light) combined with YEEI phosphopeptide and/or Apt1 or Apt2, Figure 5); “markedly increased” in experiment [4] (PT (mALA and red light) combined with YEEI phosphopeptide and/or Apt1 or Apt2, Figure 5, listed as YEEI peptide); “significantly enhanced” in experiment [4] (PT (mALA and red light) combined with YEEI phosphopeptide and/or siRNA of SEQ ID NO 2, Figure 4); “markedly increased” in experiment [4] (PT (mALA and red light) combined with YEEI phosphopeptide and/or siRNA of SEQ ID NO 2, Figure 4, listed as YEEI peptide).
